Earlier results, collected in patent US8663696B2, “Film delivery system for tetrahydrolipstatin” (MonoSol Rx, LLC, priority 2007, dated 2014).

Assays:
[1] = natural crystalline state
lipase = conditions: background statement on the drug

CCCCCCCCCCC[C@@H](C[C@@H]1OC(=O)[C@H]1CCCCCC)OC(=O)[C@H](CC(C)C)NC=O [Tetrahydrolipstatin, (2S,3S,5S)-5-[(S)-2-formamido-4-methyl-valeranyloxy]-2-hexyl-3-hexadecanoic acid lactone]
water solubility [1]: very water-insoluble
absorption of dietary fat blocked (lipase): approximately 30%
